# pEC50: −log10 of the molar value.
# Key:
# human GPR40 = molecular target: T1, human GPR40 (Homo sapiens, UniProt O14842); assay: GPR40 calcium flux assay, HEK293 cells stably expressing human GPR40; format: cell-based; conditions: transfected HEK293 cells stably expressing human GPR40, Fluo 8 dye, read-out: hGPR40 Ca2+ Assay EC50
# T1 construct: expressed in transfected cells
# Description: (§1) Compounds were tested in a calcium flux assay using transfected HEK293 cells stably expressing either human GPR40 or rat GPR40. Human GPR40 expressing cells were cultured in DMEM-High Glucose media supplemented with 10% fetal bovine serum, 1×L-Glutamine, 1×Penicillin/Streptomycin and 500 μg/mL G418. Rat GPR40 expressing cells were cultured in DMEM-High Glucose media supplemented with 10% fetal bovine serum and 1 μg/mL puromycin. Cells were plated into poly-D-lysine coated 384-well plates and cultured overnight in a 37° C. humidified tissue culture incubator under 5% CO2/[…] atmosphere. On the day of the experiment, the culture media was replaced with assay buffer (HBSS, 20 mM HEPES, 0.1% BSA) and the cells incubated at 37° C. for 1 h. Calcium-sensitive fluorescent dye (Fluo 8 No-Wash Calcium Dye, ABD Bioquest) was then added and the cells incubated for another 30 min at 37° C. followed by 15 min at room temperature while protected from the light. The cell plate and a plate of diluted compounds of Formula (I) were loaded into a fluorescent plate reader that added compounds onto the cells while measuring the fluorescence intensity of each well. The plate reader recorded fluorescence intensity at 1 second intervals for 8 min and provided the data for analysis in an Excel format. EC50 values were calculated using Prism (GraphPad) software.
# rat GPR40 = molecular target: T2, rat GPR40 (Rattus norvegicus, UniProt Q8K3T4); assay: GPR40 calcium flux assay, HEK293 cells stably expressing rat GPR40; format: cell-based; conditions: transfected HEK293 cells stably expressing rat GPR40, Fluo 8 dye, read-out: rGPR40 Ca2+ Assay EC50
# T2 construct: expressed in transfected cells
# T2 sequence (Q8K3T4 whole entry): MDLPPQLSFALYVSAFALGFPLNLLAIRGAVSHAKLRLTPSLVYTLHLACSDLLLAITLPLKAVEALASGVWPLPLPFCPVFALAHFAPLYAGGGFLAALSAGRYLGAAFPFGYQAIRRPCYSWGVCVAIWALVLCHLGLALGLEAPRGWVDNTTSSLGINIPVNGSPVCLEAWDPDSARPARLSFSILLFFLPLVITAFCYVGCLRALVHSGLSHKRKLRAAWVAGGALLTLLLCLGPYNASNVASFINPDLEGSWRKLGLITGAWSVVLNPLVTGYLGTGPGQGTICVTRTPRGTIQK
# Description: as §1
# T1 sequence (O14842 whole entry): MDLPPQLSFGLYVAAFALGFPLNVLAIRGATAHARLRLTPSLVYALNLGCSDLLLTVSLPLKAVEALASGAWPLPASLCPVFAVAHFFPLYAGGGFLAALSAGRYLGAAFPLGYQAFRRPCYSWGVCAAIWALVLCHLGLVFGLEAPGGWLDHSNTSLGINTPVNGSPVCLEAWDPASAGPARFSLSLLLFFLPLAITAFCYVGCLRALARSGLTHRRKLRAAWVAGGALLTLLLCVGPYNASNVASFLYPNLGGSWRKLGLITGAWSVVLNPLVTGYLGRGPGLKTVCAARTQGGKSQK
SMILES,pEC50 (human GPR40),pEC50 (rat GPR40)
"COc1ccc(F)c([C@H]2CC[C@H](COc3cccc(C(CC(=O)O)C4CC4)n3)CC2)c1 (mixture of isomers) [Cpd 13, 3-Cyclopropyl-3-(6-(((1r,4r)-4-(2-fluoro-5-methoxyphenyl)cyclohexyl)methoxy)pyridin-2-yl)propanoic acid]",7.49,6.84
"COc1ccc(F)c(C2=CCC(COc3cccc([C@H](C4CC4)[C@@](C)(F)C(=O)O)c3)CC2)c1 (stereo partly drawn) [Cpd 76, (2R,3S)-3-Cyclopropyl-2-fluoro-3-(3-((2′-fluoro-5′-methoxy-2,3,4,5-tetrahydro-[1,1′-biphenyl]-4-yl)methoxy)phenyl)-2-methylpropanoic acid]",9.74,9.15
"COc1ccnc(C2CCC(COc3cc([C@@H](CC(=O)O)C4CC4)ccn3)CC2)n1 (stereo partly drawn) [Cpd 49, (S)-3-Cyclopropyl-3-(2-((4-(4-methoxypyrimidin-2-yl)cyclohexyl)methoxy)pyridin-4-yl)propanoic acid]",6.61,5.95
"COc1cc(C2CCC(COc3cccc([C@H](C4CC4)C(C)(F)C(=O)O)c3)CC2)ccn1 (mixture of isomers) [Cpd 69, (3S)-3-Cyclopropyl-2-fluoro-3-(3-((4-(2-methoxypyridin-4-yl)cyclohexyl)methoxy)phenyl)-2-methylpropanoic acid]",8.92,8.82
"COc1ccc(F)c([C@H]2CC[C@@H](COc3cccc([C@H](C4CC4)[C@H](C)C(=O)O)c3)CC2)c1 [Cpd 53, (2S,3R)-3-cyclopropyl-3-(3-(((1s,4S)-4-(2-fluoro-5-methoxyphenyl)cyclohexyl)methoxy)phenyl)-2-methylpropanoic acid]",8.70,8.11
"COc1ccc(F)c([C@H]2CC[C@H](/C=C/c3cccc([C@H](C4CC4)C(C)(F)C(=O)O)c3)CC2)c1 (stereo partly drawn) [Cpd 72, (3S)-3-Cyclopropyl-2-fluoro-3-(3-((E)-2-((1r,4S)-4-(2-fluoro-5-methoxyphenyl)cyclohexyl)vinyl)phenyl)-2-methylpropanoic acid]",8.73,8.61
COc1cc([C@H]2CC[C@H](COc3cccc([C@H](C4CC4)[C@@](C)(F)C(=O)O)c3)CC2)c(F)cn1 [Cpd 62],9.60,9.25
"CC(F)(C(=O)O)[C@H](c1cccc(OCC2CCC(c3cc(F)ncc3F)CC2)c1)C1CC1 (mixture of isomers) [Cpd 67, (3S)-3-Cyclopropyl-3-(3-((4-(2,5-difluoropyridin-4-yl)cyclohexyl)methoxy)phenyl)-2-fluoro-2-methylpropanoic acid]",8.77,7.92
"CC#CC(CC(=O)O)c1cccc(OC[C@H]2CC[C@@H](c3cc(OC)ccc3F)CC2)c1 (some centres unmarked) [Cpd 42, 3-(3-(((1 s,4s)-4-(2-Fluoro-5-methoxyphenyl)cyclohexyl)methoxy)phenyl)hex-4-ynoic acid]",5.51,6.40
"CCc1ccc(F)c([C@H]2CC[C@H](COc3cccc([C@H](C4CC4)C(C)(F)C(=O)O)c3)CC2)c1 (stereo partly drawn) [Cpd 68, (3S)-3-Cyclopropyl-3-(3-(((1r,4S)-4-(5-ethyl-2-fluorophenyl)cyclohexyl)methoxy)phenyl)-2-fluoro-2-methylpropanoic acid]",9.57,8.65
"CCc1ccc(F)c([C@H]2CC[C@H](COc3cccc([C@H](C4CC4)[C@H](C)C(=O)O)c3)CC2)c1 [Cpd 57, (2S,3R)-3-cyclopropyl-3-(3-(((1r,4R)-4-(5-ethyl-2-fluorophenyl)cyclohexyl)methoxy)phenyl)-2-methylpropanoic acid]",9.30,8.92
COc1cc([C@H]2CC[C@H](COc3cccc([C@H](C4CC4)C(C)(F)C(=O)O)c3)CC2)c(F)cn1 (some centres unmarked) [Cpd 61],9.60,9.28
"COc1cc([C@H]2CC[C@H](COc3ccnc(C(CC(=O)O)C4CC4)c3)CC2)c(F)cn1 (some centres unmarked) [Cpd 31, 3-Cyclopropyl-3-(4-(((1r,4r)-4-(5-fluoro-2-methoxypyridin-4-yl)cyclohexyl)methoxy)pyridin-2-yl)propanoic acid]",7.58,7.27
"COc1cc([C@H]2CC[C@@H](COc3cc(C(CC(=O)O)C4CC4)ccn3)CC2)c(F)cn1 (some centres unmarked) [Cpd 7, 3-Cyclopropyl-3-(2-(((1s,4s)-4-(5-fluoro-2-methoxypyridin-4-yl)cyclohexyl)methoxy)pyridin-4-yl)propanoic acid]",7.46,7.10
"COc1cc([C@H]2CC[C@H](COc3cncc(C(CC(=O)O)C4CC4)c3)CC2)c(F)cn1 (some centres unmarked) [Cpd 22, 3-Cyclopropyl-3-(5-(((1r,4r)-4-(5-fluoro-2-methoxypyridin-4-yl)cyclohexyl)methoxy)pyridin-3-yl)propanoic acid]",7.75,7.28
"COc1ccc(F)c([C@H]2CC[C@H](CNc3cccc([C@H](C4CC4)C(C)(F)C(=O)O)c3)CC2)c1 (stereo partly drawn) [Cpd 77, (3S)-3-Cyclopropyl-2-fluoro-3-(3-((((1r,4S)-4-(2-fluoro-5-methoxyphenyl)cyclohexyl)methyl)amino)phenyl)-2-methylpropanoic acid]",8.76,7.98
"COc1ccc(F)c([C@]2(OC)CC[C@@H](COc3cccc([C@@H](CC(=O)O)C4CC4)c3)CC2)c1 [Cpd 11, (S)-3-Cyclopropyl-3-(3-(((1s,4R)-4-(2-fluoro-5-methoxyphenyl)-4-methoxycyclohexyl)methoxy)phenyl)propanoic acid]",8.68,7.74
"CCc1ccc(Cl)c(C2CCC(COc3cccc([C@H](C4CC4)C(C)(F)C(=O)O)c3)CC2)c1 (stereo partly drawn) [Cpd 65, (3S)-3-(3-((4-(2-Chloro-5-ethylphenyl)cyclohexyl)methoxy)phenyl)-3-cyclopropyl-2-fluoro-2-methylpropanoic acid]",9.23,8.76
"COc1ccc(F)c([C@]2(O)CC[C@@H](COc3cccc([C@@H](CC(=O)O)C4CC4)c3)CC2)c1 [Cpd 3, (S)-3-Cyclopropyl-3-(3-(((1s,4R)-4-(2-fluoro-5-methoxyphenyl)-4-hydroxycyclohexyl)methoxy)phenyl)propanoic acid]",7.61,6.80

# Now from value to compound:
pEC50 (human GPR40),pEC50 (rat GPR40),SMILES
7.15,6.83,"COc1ccc(F)c([C@H]2CC[C@@H](CNc3cccc([C@@H](CC(=O)O)C4CC4)c3)CC2)c1 [Cpd 47, (S)-3-cyclopropyl-3-(3-((((1s,4R)-4-(2-fluoro-5-methoxyphenyl)cyclohexyl)methyl)amino)phenyl)propanoic acid]"
6.22,5.50,"COc1ccc(F)c([C@H]2CC[C@@H](COc3cccc([C@@H](Cc4nnn[nH]4)C4CC4)c3)CC2)c1 [Cpd 39, 5-((S)-2-Cyclopropyl-2-(3-(((1s,4R)-4-(2-fluoro-5-methoxyphenyl)cyclohexyl)methoxy)phenyl)ethyl)-1H-tetrazole]"
5.74,5.27,"COc1ccc(F)c([C@H]2CC[C@@H](COc3ccnc(C(CC(=O)O)C4CC4)c3)CC2)c1 (some centres unmarked) [Cpd 35, 3-Cyclopropyl-3-(4-(((1s,4s)-4-(2-fluoro-5-methoxyphenyl)cyclohexyl)methoxy)pyridin-2-yl)propanoic acid]"
7.92,7.45,"COc1ccc(F)c([C@H]2CC[C@H](COc3cncc(C(CC(=O)O)C4CC4)c3)CC2)c1 (some centres unmarked) [Cpd 21, 3-Cyclopropyl-3-(5-(((1r,4r)-4-(2-fluoro-5-methoxyphenyl)cyclohexyl)methoxy)pyridin-3-yl)propanoic acid]"
7.35,6.41,"COc1ccc(F)c([C@H]2CC[C@H](COc3cccc([C@@H](Cc4nnn[nH]4)C4CC4)c3)CC2)c1 [Cpd 17, 5-((S)-2-Cyclopropyl-2-(3-(((1r,4S)-4-(2-fluoro-5-methoxyphenyl)cyclohexyl)methoxy)phenyl)ethyl)-1H-tetrazole]"
9.70,9.40,"COc1ccc(F)c([C@H]2CC[C@H](COc3cccc([C@H](C4CC4)[C@H](C)C(=O)O)c3)CC2)c1 [Cpd 52, (2S,3R)-3-cyclopropyl-3-(3-(((1r,4R)-4-(2-fluoro-5-methoxyphenyl)cyclohexyl)methoxy)phenyl)-2-methylpropanoic acid]"
6.88,6.46,"COc1ccc(F)c(C2CCC(COc3cccc(C(CC(=O)O)C4CC4)c3)CC2)c1 (centres unmarked) [Cpd 55, 3-Cyclopropyl-3-(3-(((1 s,4 s)-4-(2-fluoro-5-methoxyphenyl)cyclohexyl)methoxy)phenyl)propanoic acid]"
8.21,7.81,"COc1ccc(F)c([C@H]2CC[C@H](COc3cccc([C@H](CC(=O)O)C4CC4)c3)CC2)c1 [Cpd 38, (R)-3-cyclopropyl-3-(3-(((1r,4R)-4-(2-fluoro-5-methoxyphenyl)cyclohexyl)methoxy)phenyl)propanoic acid]"
7.74,7.37,"COc1ccc(F)c([C@H]2CC[C@@H](COc3cc([C@H](CC(=O)O)C4CC4)ccn3)CC2)c1 [Cpd 41, (R)-3-Cyclopropyl-3-(2-(((1s,4S)-4-(2-fluoro-5-methoxyphenyl)cyclohexyl)methoxy)pyridin-4-yl)propanoic acid]"

# Reference: US10988433B2, “Cyclohexyl GPR40 agonists for the treatment of type II diabetes” (Janssen Pharmaceutica NV, priority 2016, dated 2021)
